Reference: PMC5361811, “Inhibition of human endogenous retrovirus-K by antiretroviral drugs” (Retrovirology, 2017)

System: T1, HERV-K protease
T1 construct: gene pro; retroviral aspartic protease of consensus HERV-K genome (from Gag-Pro-Pol polyprotein; synthetic, plasmid pCD-HK/Rev), acting in transfected HeLa or 293 cells and virions; homodimer by homology
Test: virus production in transfected HeLa cells, RT activity in supernatant by PERT
Type: cell-based
Conditions: Homo sapiens, read-out: HERV-K IC50 (μM)
Text: virus production in transfected HeLa cells, RT activity in supernatant by PERT on HERV-K protease

Row | SMILES | IC50 [µM]
1 | Cc1cccc(C)c1OCC(=O)N[C@@H](Cc1ccccc1)[C@@H](O)C[C@H](Cc1ccccc1)NC(=O)[C@H](C(C)C)N1CCCNC1=O [Lopinavir] | 0.034
2 | CC(C)CN(C[C@@H](O)[C@H](Cc1ccccc1)NC(=O)O[C@H]1CO[C@H]2OCC[C@H]21)S(=O)(=O)c1ccc(N)cc1 [Darunavir] | 0.029
